From ChEMBL document CHEMBL4385656, “Ciprofloxacin-1,2,3-triazole-isatin hybrids tethered via amide: Design, synthesis, and in vitro anti-mycobacterial activity evaluation” (Bioorg Med Chem Lett, 2019) come the findings set out here.

SMILES strings stand for the structures. ≈ marks a conversion by molar mass, not a printed value.

The test system of one assay is Mycobacterium tuberculosis. In words: Anti-mycobacterial activity against isoniazid and rifampicin-resistant Mycobacterium tuberculosis. It is filed as functional.
The term MIC denotes the lowest concentration found to suppress growth. Consider `CO/N=C1/C(=O)N(Cc2cn(CC(=O)N3CCN(c4cc5c(cc4F)c(=O)c(C(=O)O)cn5C4CC4)CC3)nn2)c2ccc(C)cc21`, for which the MIC is 8 µg/mL (≈ 12.4 µM).

Turning to `CCO/N=C1/C(=O)N(Cc2cn(CC(=O)N3CCN(c4cc5c(cc4F)c(=O)c(C(=O)O)cn5C4CC4)CC3)nn2)c2ccc(C)cc21`, the MIC was 32 µg/mL (≈ 48.7 µM).

On to `CCO/N=C1/C(=O)N(Cc2cn(CC(=O)N3CCN(c4cc5c(cc4F)c(=O)c(C(=O)O)cn5C4CC4)CC3)nn2)c2ccc(F)cc21`, for which the lowest concentration to inhibit growth (MIC) was 16 µg/mL (≈ 24.2 µM).

Take `O=C(O)c1cn(C2CC2)c2cc(N3CCNCC3)c(F)cc2c1=O` [CIPROFLOXACIN]: the minimum inhibitory concentration (MIC) worked out at 2 µg/mL (≈ 6.04 µM).

Consider `CO/N=C1/C(=O)N(Cc2cn(CC(=O)N3CCN(c4cc5c(cc4F)c(=O)c(C(=O)O)cn5C4CC4)CC3)nn2)c2ccccc21`, for which the MIC turned out to be 8 µg/mL (≈ 12.7 µM).

`NNC(=O)c1ccncc1` [ISONIAZID]: the MIC was > 64 µg/mL.

Take `O=C1C(=O)N(Cc2cn(CC(=O)N3CCN(c4cc5c(cc4F)c(=O)c(C(=O)O)cn5C4CC4)CC3)nn2)c2ccccc21`: it took 0.12 µg/mL (≈ 0.2 µM) to inhibit growth (MIC).

In turn, `CO/N=C1/C(=O)N(Cc2cn(CC(=O)N3CCN(c4cc5c(cc4F)c(=O)c(C(=O)O)cn5C4CC4)CC3)nn2)c2ccc(F)cc21` registered a minimal inhibitory concentration (MIC) of 16 µg/mL (≈ 24.7 µM).

`CCO/N=C1/C(=O)N(Cc2cn(CC(=O)N3CCN(c4cc5c(cc4F)c(=O)c(C(=O)O)cn5C4CC4)CC3)nn2)c2ccccc21` came in with an MIC of 16 µg/mL (≈ 24.9 µM).

Consider `CO[C@H]1/C=C/O[C@@]2(C)Oc3c(C)c(O)c4c(O)c(c(/C=N/N5CCN(C)CC5)c(O)c4c3C2=O)NC(=O)/C(C)=C\C=C\[C@H](C)[C@H](O)[C@@H](C)[C@@H](O)[C@@H](C)[C@H](OC(C)=O)[C@@H]1C` [RIFAMPIN], for which the MIC was > 64 µg/mL.

Take `Cc1ccc2c(c1)C(=O)C(=O)N2Cc1cn(CC(=O)N2CCN(c3cc4c(cc3F)c(=O)c(C(=O)O)cn4C3CC3)CC2)nn1`: it took 2 µg/mL (≈ 3.26 µM) to inhibit growth (MIC).

`CCO/N=C1/C(=O)N(Cc2cn(CC(=O)N3CCN(c4cc5c(cc4F)c(=O)c(C(=O)O)cn5C4CC4)CC3)nn2)c2c(F)cccc21`: it took 32 µg/mL (≈ 48.4 µM) to inhibit growth (MIC).

`O=C1C(=O)N(Cc2cn(CC(=O)N3CCN(c4cc5c(cc4F)c(=O)c(C(=O)O)cn5C4CC4)CC3)nn2)c2ccc(F)cc21` gave an MIC of 1 µg/mL (≈ 1.62 µM).

Consider `CO/N=C1/C(=O)N(Cc2cn(CC(=O)N3CCN(c4cc5c(cc4F)c(=O)c(C(=O)O)cn5C4CC4)CC3)nn2)c2c(F)cccc21`, for which the MIC came out at 32 µg/mL (≈ 49.5 µM).

As to `O=C1C(=O)N(Cc2cn(CC(=O)N3CCN(c4cc5c(cc4F)c(=O)c(C(=O)O)cn5C4CC4)CC3)nn2)c2c(F)cccc21`, inhibition of growth (MIC) required 2 µg/mL (≈ 3.24 µM).

Another assay has as its system Mycobacterium tuberculosis. Briefly: Potency index, ratio of MIC for ciprofloxacin to MIC for test compound for anti-mycobacterial activity against isoniazid and rifampicin-resistant Mycobacterium tuberculosis. It counts as functional.
Turning to `O=C1C(=O)N(Cc2cn(CC(=O)N3CCN(c4cc5c(cc4F)c(=O)c(C(=O)O)cn5C4CC4)CC3)nn2)c2ccccc21`, the Ratio entry is “>=16”.

Another assay deals with Mycobacterium tuberculosis. In words: Potency index, ratio of MIC for isoniazid to MIC for test compound for anti-mycobacterial activity against isoniazid and rifampicin-resistant Mycobacterium tuberculosis. It counts as functional.
Regarding `O=C1C(=O)N(Cc2cn(CC(=O)N3CCN(c4cc5c(cc4F)c(=O)c(C(=O)O)cn5C4CC4)CC3)nn2)c2ccccc21`, the Ratio result is recorded as “>=16”.

In the next assay the test system is Mycobacterium tuberculosis. Briefly: Potency index, ratio of MIC for rifampicin to MIC for test compound for anti-mycobacterial activity against isoniazid and rifampicin-resistant Mycobacterium tuberculosis. It is filed as functional.
Regarding `O=C1C(=O)N(Cc2cn(CC(=O)N3CCN(c4cc5c(cc4F)c(=O)c(C(=O)O)cn5C4CC4)CC3)nn2)c2ccccc21`, the Ratio entry is reported as “>=16”.
